In EP0486749A1, “Triarylmethane compounds and pressure sensitive recording material” (HODOGAYA CHEMICAL CO., LTD., priority 1991, dated 1992):

Legend:
[1] = Color formation on silica gel (TLC) and light resistance of the formed color; conditions: for light resistance: color formed on silica gel TLC
Description: The color in the Table is the color formed on silica gel.
To a dilute hydrochloric acid aqueous solution prepared by diluting 25 parts of 35% hydrochloric acid with 130 parts of water, 30 parts of 4,4'-bisdimethylaminobenzhydrol and 22 parts of methyl 3-dimethylaminobenzoate were dissolved and reacted at a temperature of from 50 to 60°C for 5 hours. Then, 10 parts of active carbon was added thereto, and the mixture was thoroughly mixed. After removing active carbon by filtration, 150 parts of 10% sodium hydroxide and 100 parts of toluene were added to the filtrate and thoroughly mixed. The toluene layer was separated, then washed with 100 parts of water and separated. Then, this toluene layer was thoroughly dried over anhydrous sodium salfate. Then, this toluene layer was concentrated, and 100 parts of methanol was added to the residue thereby obtained. Precipitated crystals were collected by filtration and recrystallized from a solvent mixture comprising 50 parts of methanol and 50 parts of acetone to obtain 35 parts of bis((4-dimethylamino)phenyl)-(2-methoxycarbonyl-4-dimethylaminophenyl)methane.

[2] = Solubility of the color former in oil (KMC-113); format: physicochemical; conditions: in KMC-113 at 50°C
Text: To examine the solubility of a color former in oil, the solubility of benzoylleucomethylene blue in KMC-113 (product of Kureha Chemical Industries Co., Ltd.) as a typical solvent commonly employed, was investigated.
To examine the solubility in oil of the triarylmethane compounds of the present invention, the solubility in KMC-113 (product of Kureha Chemical Industries Co., Ltd.) as a typical solvent was examined.

light resistance [1] | solubility [2] | SMILES | color formed on silica gel TLC [1]
excellent | at least 10% | COC(=O)c1cc(N(C)C)ccc1C(c1ccc(N(C)C)cc1)c1ccc(N(C)C)cc1 [Preparation Example 1, bis((4-dimethylamino)phenyl)-(2-methoxycarbonyl-4-dimethylaminophenyl)methane] | gradually formed a clear blue color
excellent | at least 10% | CC(C)OC(=O)c1cc(N(C)C)ccc1C(c1ccc(N(C)C)cc1)c1ccc(N(C)C)cc1 [Preparation Example 2, bis((4-dimethylamino)phenyl)-(2-isopropoxycarbonyl-4-dimethylaminophenyl)methane] | gradually formed a clear blue color
excellent | – | COC(=O)c1cc(N(C)C)ccc1C(c1ccc(N(C)C)cc1C)c1ccc(N(C)C)cc1C [Preparation Example 4, bis((2-methyl-4-dimethylamino)phenyl)-(2-methoxycarbonyl-4-dimethylaminophenyl)methane] | gradually formed a clear blue color
excellent | – | CCOC(=O)c1cc(N(C)C)ccc1C(c1ccc(N(C)C)cc1C)c1ccc(N(C)C)cc1C [Preparation Example 5, bis((2-methyl-4-dimethylamino)phenyl)-(2-ethoxycarbonyl-4-dimethylaminophenyl)methane] | gradually formed a clear blue color
– | 2.5% | CN(C)c1ccc2c(c1)Sc1cc(N(C)C)ccc1N2C(=O)c1ccccc1 [benzoylleucomethylene blue, reference compound] | –

SMILES | light resistance [1] | solubility [2] | color formed on silica gel TLC [1]
CCCCOC(=O)c1cc(N(C)C)ccc1C(c1ccc(N(C)C)cc1)c1ccc(N(C)C)cc1 [Preparation Example 3, bis((4-dimethylamino)phenyl)-(2-n-butoxycarbonyl-4-dimethylaminophenyl)methane] | excellent | at least 10% | gradually formed a clear blue color
